Experiments:
[1] = test system: tau tangles on AD brain section; assay: Assay 1: displacement of RefA on human AD brain sections (fluorescence); assay type: binding; conditions: for Selectivity (tau/Abeta): ratio of competition on tau tangles to competition on Aβ plaques
How it was run: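 Braak V-VI AD amygdala frozen sections were preincubated with test compound at 250 μM in 50% ethanol for 20 min at room temperature. Fluorescent RefA at 1 μM in 50% ethanol was then added for 20 min, imaged at 470 nm excitation, and tangles were quantified.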

[2] = target: T1, in vitro aggregated Abeta1-42 (Homo sapiens, UniProt P05067); assay: Assay 2 (filter trap): [3H]RefA competition and Ki on aggregated Abeta1-42 (selectivity tau versus Abeta); assay type: binding; conditions: Table 24; fold increase of the Ki on aggregated Abeta1-42 versus PHF
T1 construct: Abeta1-42 (Bachem, Switzerland) peptide films were re-suspended in 1% DMSO; purchased Bachem, Switzerland
T1 sequence (P05067 672-713 limits assumed): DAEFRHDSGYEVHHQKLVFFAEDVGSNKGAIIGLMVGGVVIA
Procedure: Recombinant human full-length Tau441 (flTau) was expressed in bacteria and purified in the laboratory of Professor Hilal Lashuel (EPFL, Switzerland). A solution of 8 μM (400 μg/mL) flTau in PBS, 10 μM DTT and 5 μM heparin (all from Sigma-Aldrich) was gently mixed (cradled) for 3 days at 37° C. Cradled flTau aggregates were used at a final concentration of 20 μg/mL in all binding assays. Abeta1-42 (Bachem, Switzerland) peptide films were re-suspended in 1% DMSO and diluted in PBS to a 33 μM (150 μg/mL) suspension that was sonicated until complete dissolution. Aggregation process was done at 37° C. for 24 hours. Aggregated Abeta1-42 was used at a concentration of 20 μg/mL in all binding assays.
AD brain-enriched PHF diluted 1/80 were incubated in the presence of [^3H]RefA at 10 nM and the example compounds of this invention at 2.5 μM (250× excess), for 45 minutes at 37° C. Samples were then analyzed by on GF/B filter plates as described above (in the section “[^3H]RefA radio-binding assay and determination of the dissociation constant (Kd)). Non-specific signal was determined again with an excess of un-labeled RefA and specific binding calculated by subtracting the non-specific signal from the total signal. […]

Competition on AD brain section tau tangles (1 μM RefA vs. 250 μM compound) [1]	Selectivity (tau/Abeta) [1]	Fold increase on Abeta1-42 vs PHF [2]	SMILES
96%	>96 fold		Cn1c2ccncc2c2ccc(Nc3ccc(F)c(F)c3)nc21 [Example 2]
90%	~15 fold	0.5	Cn1c2ccncc2c2ccc(Nc3cccc(OCCF)c3)nc21 [Example 8]
97%	>97 fold	200	Cn1c2ccncc2c2ccc(Nc3ccc(OC(F)F)cc3)nc21 [Example 9]

Reference: patent US10662193B2, “Carbazole and carboline compounds for use in the diagnosis, treatment, alleviation or prevention of disorders associated with amyloid or amyloid-like proteins” (AC IMMUNE SA, priority 2014, dated 2020)
